Results published in patent US20220125793A1, “CANCER THERAPY USING 3,5-DISUBSTITUTED BENZENE ALKYNYL COMPOUND AND IMMUNE CHECKPOINT INHIBITOR” (TAIHO PHARMACEUTICAL CO., LTD., priority 2019, published 2022).

B1: vofatamab: an anti-FGFR3 antibody (antibody, chains of the INN, looked up, V domains shown)
VH: EVQLVESGGGLVQPGGSLRLSCAASGFTFTSTGISWVRQAPGKGLEWVGRIYPTSGSTNYADSVKGRFTISADTSKNTAYLQMNSLRAEDTAVYYCARTYGIYDLYVDYTEYVMDYWGQGTLVTVSS
VL: DIQMTQSPSSLSASVGDRVTITCRASQDVDTSLAWYKQKPGKAPKLLIYSASFLYSGVPSRFSGSGSGTDFTLTISSLQPEDFATYYCQQSTGHPQTFGQGTKVEIK

Tests used:
[1] = test system: mouse breast cancer cell line 4T1 subcutaneously implanted model; test: Influence on tumor immunity in model subcutaneously implanted with mouse breast cancer cell 4T1; format: in vivo, BALB/cAJcl mouse; conditions: Day 15
Experimental: Mouse breast cancer cell line 4T1 was subcutaneously implanted in a 6-week-old male BALB/cAJcl mouse. […] On the day following the final administration (Day 15), lymphocyte fractions were isolated from the tumor, spleen, and peripheral blood, and myeloid-derived suppressor cells (MDSCs) (CD11b^+/Gr−1^+ cells), CD4-positive T cells, and CD8-positive T cells were measured using a cell sorter.

urothelial cancer = conditions: cited from earlier work
[2] = 15 and 30 mg/kg/day oral, daily for 14 days, compared with control

Row | Molecule | CD4-positive T cells in the peripheral blood lymphocyte fractions [1, 2] | CD8-positive T cells in the peripheral blood lymphocyte fractions [1, 2] | CD8-positive T cells in the spleen lymphocyte fractions [1, 2] | MDSCs in the peripheral blood lymphocyte fractions [1, 2] | MDSCs (CD11b+/Gr-1+ cells) in the spleen lymphocyte fractions ([1]; any dose (15 or 30 mg/kg/day oral, daily for 14 days), compared with non-drug administration control, Student's t-test P<0.01) | response in patients without FGFR genetic aberration (urothelial cancer; combined use with pembrolizumab) | sensitivity state of the cancer to immune checkpoint inhibitors (urothelial cancer; urothelial cancer patients, vofatamab administration)
1 | C=CC(=O)N1CC[C@H](n2nc(C#Cc3cc(OC)cc(OC)c3)c3c(N)ncnc32)C1 [compound 1, (S)-1-(3-(4-amino-3-((3,5-dimethoxyphenyl)ethynyl)-1H-pyrazolo[3,4-d]pyrimidin-1-yl)pyrrolidin-1-yl)prop-2-en-1-one] | tended to increase in a dose-dependent manner | tended to increase in a dose-dependent manner | tended to increase in a dose-dependent manner | tended to decrease in a dose-dependent manner | significant reduction | – | –
2 | B1 | – | – | – | – | – | response by combined use with pembrolizumab is observed | change from a “cold” state (low sensitivity to immune checkpoint inhibitors) to a “hot” state (high sensitivity to immune checkpoint inhibitors)
